# Earlier results, collected in patent US20250236629A1, “MEDIUM- OR MACRO-CYCLIC BENZYL-SUBSTITUTED HETEROCYCLE DERIVATIVES AND RELATED USES” (CENTESSA PHARMACEUTICALS (UK) LIMITED, priority 2022, published 2025).
# Like-named read-outs stand apart in the source and are kept apart here.
# Tests used:
# OX2R = target: T1, OX2R (Mus musculus, UniProt P58308); conditions: subcutaneous, cited from earlier work
# T1 construct: host or cells: mice (WT, orexin-deficient and NT1 models), endogenous receptor in brain
# T1 sequence (P58308 1-460): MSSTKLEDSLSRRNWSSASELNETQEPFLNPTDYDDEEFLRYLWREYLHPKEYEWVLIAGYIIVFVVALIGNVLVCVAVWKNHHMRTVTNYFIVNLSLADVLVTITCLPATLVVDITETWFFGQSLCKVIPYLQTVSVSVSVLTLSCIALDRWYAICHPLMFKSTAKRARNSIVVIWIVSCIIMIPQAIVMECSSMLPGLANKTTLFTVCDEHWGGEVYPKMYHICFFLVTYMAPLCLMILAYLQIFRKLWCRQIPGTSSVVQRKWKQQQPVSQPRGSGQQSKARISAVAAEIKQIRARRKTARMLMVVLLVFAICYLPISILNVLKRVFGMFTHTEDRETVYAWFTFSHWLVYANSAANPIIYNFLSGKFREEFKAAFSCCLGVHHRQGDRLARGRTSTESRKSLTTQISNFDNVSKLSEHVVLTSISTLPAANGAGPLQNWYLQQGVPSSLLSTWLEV
# individuals with NT1 = conditions: initial clinical studies; cited from earlier work
compound,measurement,setting,value
COC(=O)N1CCC[C@H](NS(C)(=O)=O)[C@@H]1CO[C@H]1CC[C@@H](c2ccccc2)CC1 [TAK-925],wakefulness,OX2R; OX2R-knockout mice,not in OX2R-knockout mice
same,wakefulness,OX2R; WT mice,modestly increased wakefulness
same,cataplexy,individuals with NT1,trends for decreasing cataplexy
same,wakefulness,individuals with NT1,substantial levels of increased wakefulness
